Results taken from ChEMBL document CHEMBL1201861, “Genomics of Drug Sensitity in Cancer screening data, Wellcome Trust Sanger Institute”.

Legend:
[1] = tested on: EB-3; experiment: cells; format: functional, cell-based, Homo sapiens; conditions: Homo sapiens, EB-3;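 further: human EB-3 cells, growth inhibition read out via a cell viability assay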
Description: SANGER: Inhibition of human EB-3 cell growth in a cell viability assay.

[2] = tested on: EW-12; experiment: SANGER: Inhibition of human EW-12 cell growth in a cell viability assay.; format: functional, cell-based
[3] = tested on: IMR-5; experiment: cells; format: functional, cell-based, Homo sapiens; conditions: Homo sapiens, IMR-5;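 further: growth inhibition of human IMR-5 cells, read out with a cell viability assay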
Description: SANGER: Inhibition of human IMR-5 cell growth in a cell viability assay.

[4] = tested on: Kasumi 1; experiment: cells; format: functional, cell-based, Homo sapiens; conditions: Homo sapiens, Kasumi 1;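 further: growth inhibition of human Kasumi-1 cells, read out by a cell viability assay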
Description: SANGER: Inhibition of human KASUMI-1 cell growth in a cell viability assay.

[5] = tested on: NB7; experiment: cells; format: functional, cell-based, Homo sapiens; conditions: Homo sapiens, NB7;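 further: growth inhibition of NB7 cells, read out with a cell viability assay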
Description: SANGER: Inhibition of human NB7 cell growth in a cell viability assay.

[6] = tested on: NCI-H322M; experiment: cells; format: functional, cell-based, Homo sapiens; conditions: Homo sapiens, NCI-H322M;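 further: cell viability assay measuring inhibition of growth of human NCI-H322M cells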
Description: SANGER: Inhibition of human NCI-H322M cell growth in a cell viability assay.

[7] = tested on: Raji; experiment: cells; format: functional, cell-based, Homo sapiens; conditions: Homo sapiens, Raji;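 further: cell viability assay measuring inhibition of Raji cell growth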
Description: SANGER: Inhibition of human Raji cell growth in a cell viability assay.

[8] = tested on: WSU-NHL; experiment: cells; format: functional, cell-based, Homo sapiens; conditions: Homo sapiens, WSU-NHL;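 further: growth inhibition of human WSU-NHL cells, read out with a cell viability assay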
Description: SANGER: Inhibition of human WSU-NHL cell growth in a cell viability assay.

[9] = tested on: CMK; experiment: cells; format: functional, cell-based, Homo sapiens; conditions: Homo sapiens, CMK;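 further: growth inhibition of CMK cells, read out as cell viability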
Description: SANGER: Inhibition of human CMK cell growth in a cell viability assay.

[10] = tested on: COR-L23; experiment: cells; format: functional, cell-based, Homo sapiens; conditions: Homo sapiens, COR-L23;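 further: cell viability assay measuring how strongly compounds suppress growth of COR-L23 cells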
Description: SANGER: Inhibition of human COR-L23 cell growth in a cell viability assay.

[11] = tested on: CaR-1; experiment: cells; format: functional, cell-based, Homo sapiens; conditions: Homo sapiens, CaR-1;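 further: growth inhibition of human CaR-1 cancer cells, read out with a cell viability assay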
Description: SANGER: Inhibition of human CaR-1 cell growth in a cell viability assay.

[12] = tested on: H9; experiment: cells; format: functional, cell-based, Homo sapiens; conditions: Homo sapiens, H9
Description: SANGER: Inhibition of human H9 cell growth in a cell viability assay.

[13] = tested on: KP-4; experiment: cells; format: functional, cell-based, Homo sapiens; conditions: Homo sapiens, KP-4;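 further: human KP-4 cells, with growth inhibition read out through a cell viability assay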
Description: SANGER: Inhibition of human KP-4 cell growth in a cell viability assay.

[14] = tested on: KU-19-19; experiment: cells; format: functional, cell-based, Homo sapiens; conditions: Homo sapiens, KU-19-19
Description: SANGER: Inhibition of human KU-19-19 cell growth in a cell viability assay.

[15] = tested on: LU-135; experiment: cells; format: functional, cell-based, Homo sapiens; conditions: Homo sapiens, LU-135
Description: SANGER: Inhibition of human LU-135 cell growth in a cell viability assay.

[16] = tested on: LU-99A; experiment: cells; format: functional, cell-based, Homo sapiens; conditions: Homo sapiens, LU-99A;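 further: growth inhibition of LU-99A cells, read out with a cell viability assay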
Description: SANGER: Inhibition of human LU-99A cell growth in a cell viability assay.

[17] = tested on: MCF7; experiment: cells; format: functional, cell-based, Homo sapiens; conditions: Homo sapiens, MCF7;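 further: growth inhibition of human MCF7 cells, read out with a cell viability assay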
Description: SANGER: Inhibition of human MCF7 cell growth in a cell viability assay.

[18] = tested on: NCI-H1666; experiment: cells; format: functional, cell-based, Homo sapiens; conditions: Homo sapiens, NCI-H1666;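 further: growth inhibition of the cell line, read out with a cell viability assay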
Description: SANGER: Inhibition of human NCI-H1666 cell growth in a cell viability assay.

[19] = tested on: NCI-H2228; experiment: cells; format: functional, cell-based, Homo sapiens; conditions: Homo sapiens, NCI-H2228;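 further: growth inhibition of human NCI-H2228 cells, read out by a cell viability assay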
Description: SANGER: Inhibition of human NCI-H2228 cell growth in a cell viability assay.

[20] = tested on: NCI-H2291; experiment: cells; format: functional, cell-based, Homo sapiens; conditions: Homo sapiens, NCI-H2291
Description: SANGER: Inhibition of human NCI-H2291 cell growth in a cell viability assay.

[21] = tested on: NCI-H630; experiment: cells; format: functional, cell-based, Homo sapiens; conditions: Homo sapiens, NCI-H630;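 further: growth inhibition of NCI-H630 cells, read out with a cell viability assay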
Description: SANGER: Inhibition of human NCI-H630 cell growth in a cell viability assay.

[22] = tested on: OAW-42; experiment: cells; format: functional, cell-based, Homo sapiens; conditions: Homo sapiens, OAW-42;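 further: growth inhibition of OAW-42 cells, read out with a cell viability assay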
Description: SANGER: Inhibition of human OAW-42 cell growth in a cell viability assay.

[23] = tested on: OE19; experiment: cells; format: functional, cell-based, Homo sapiens; conditions: Homo sapiens, OE19;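 further: growth inhibition of OE19 cells, measured through a cell viability read-out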
Description: SANGER: Inhibition of human OE19 cell growth in a cell viability assay.

[24] = tested on: OVCAR-3; experiment: cells; format: functional, cell-based, Homo sapiens; conditions: Homo sapiens, OVCAR-3;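 further: growth inhibition of human OVCAR-3 cells, determined by a cell viability assay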
Description: SANGER: Inhibition of human OVCAR-3 cell growth in a cell viability assay.

[25] = tested on: Panc1005; experiment: cells; format: functional, cell-based, Homo sapiens; conditions: Homo sapiens, Panc1005;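 further: growth inhibition of human PANC-10-05 cells, measured by a cell viability assay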
Description: SANGER: Inhibition of human PANC-10-05 cell growth in a cell viability assay.

[26] = tested on: RH-18; experiment: cells; format: functional, cell-based, Homo sapiens; conditions: Homo sapiens, Rh18;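 further: growth inhibition of human RH-18 cells, read out with a cell viability assay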
Description: SANGER: Inhibition of human RH-18 cell growth in a cell viability assay.

[27] = tested on: SW 1116; experiment: cells; format: functional, cell-based, Homo sapiens; conditions: Homo sapiens, SW 1116;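 further: growth inhibition of SW1116 cells, read out with a cell viability assay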
Description: SANGER: Inhibition of human SW1116 cell growth in a cell viability assay.

[28] = tested on: SW48; experiment: cells; format: functional, cell-based, Homo sapiens; conditions: Homo sapiens, SW48;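 further: growth inhibition of SW48 cells, read out with a cell viability assay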
Description: SANGER: Inhibition of human SW48 cell growth in a cell viability assay.

[29] = tested on: 639-V; experiment: cells; format: functional, cell-based, Homo sapiens; conditions: Homo sapiens, 639-V;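 further: growth inhibition of 639-V cells, read out with a cell viability assay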
Description: SANGER: Inhibition of human 639-V cell growth in a cell viability assay.

[30] = tested on: 8305C; experiment: cells; format: functional, cell-based, Homo sapiens; conditions: Homo sapiens, 8305C
Description: SANGER: Inhibition of human 8305C cell growth in a cell viability assay.

[31] = tested on: A-427; experiment: cells; format: functional, cell-based, Homo sapiens; conditions: Homo sapiens, A-427;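 further: growth inhibition of human A-427 cells, read out by a cell viability assay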
Description: SANGER: Inhibition of human A427 cell growth in a cell viability assay.

[32] = tested on: CAL-120; experiment: cells; format: functional, cell-based, Homo sapiens; conditions: Homo sapiens, CAL-120;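 further: cell growth inhibition, read out as cell viability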
Description: SANGER: Inhibition of human CAL-120 cell growth in a cell viability assay.

[33] = tested on: TGBC11TKB; experiment: cells; format: functional, cell-based, Homo sapiens; conditions: Homo sapiens, TGBC11TKB;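 further: growth inhibition of human TGBC11TKB cells, measured by a cell viability assay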
Description: SANGER: Inhibition of human TGBC11TKB cell growth in a cell viability assay.

[34] = tested on: TI-73; experiment: cells; format: functional, cell-based, Homo sapiens; conditions: Homo sapiens, TI-73;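 further: cell viability assay measuring how much compounds suppress growth of the cultured cell line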
Description: SANGER: Inhibition of human TI-73 cell growth in a cell viability assay.

[35] = tested on: TYK-nu; experiment: cells; format: functional, cell-based, Homo sapiens; conditions: Homo sapiens, TYK-nu;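 further: growth inhibition of human TYK-nu cells, read out by a cell viability assay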
Description: SANGER: Inhibition of human TYK-nu cell growth in a cell viability assay.

[36] = tested on: U2OS; experiment: cells; format: functional, cell-based, Homo sapiens, U-2-OS; conditions: Homo sapiens, U2OS;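 further: growth inhibition of human U-2-OS cells, determined with a cell viability assay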
Description: SANGER: Inhibition of human U-2-OS cell growth in a cell viability assay.

[37] = tested on: U-251; experiment: cells; format: functional, cell-based, Homo sapiens; conditions: Homo sapiens, U-251;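 further: growth inhibition of human U-251 cells, read out through a cell viability assay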
Description: SANGER: Inhibition of human U251 cell growth in a cell viability assay.

[38] = tested on: YH-13; experiment: cells; format: functional, cell-based, Homo sapiens; conditions: Homo sapiens, YH-13;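 further: cell viability readout of growth suppression in the human YH-13 cell line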
Description: SANGER: Inhibition of human YH-13 cell growth in a cell viability assay.

Q: Which IC50 [1] does the source give for `COc1cc(-c2nn([C@H]3CC[C@H](N4CCN(C(C)=O)CC4)CC3)c3ncnc(N)c23)ccc1NC(=O)c1cc2ccccc2n1C` here?
A: > 5120 nM

Q: And the IC50 [2]?
A: > 5120 nM

Q: What about the IC50 [3] of the same compound?
A: > 5120 nM

Q: And the IC50 [4]?
A: > 5120 nM

Q: What about the IC50 [5] of the same compound?
A: > 5120 nM

Q: What about the IC50 [6] of the same compound?
A: > 5120 nM

Q: And the IC50 [7]?
A: > 5120 nM

Q: What about the IC50 [8] of the same compound?
A: > 5120 nM

Q: And the IC50 [9]?
A: > 5120 nM

Q: With `OCCCNc1cc(-c2ccnc(Nc3cccc(Cl)c3)n2)ccn1` as the compound, how does the IC50 [1] read?
A: 64.8 nM

Q: What about the IC50 [2] of the same compound?
A: > 256 nM

Q: And the IC50 [3]?
A: 124 nM

Q: And the IC50 [4]?
A: > 256 nM

Q: And the IC50 [5]?
A: > 256 nM

Q: And the IC50 [6]?
A: > 256 nM

Q: What about the IC50 [7] of the same compound?
A: 42.1 nM

Q: What about the IC50 [8] of the same compound?
A: > 256 nM

Q: And the IC50 [9]?
A: > 256 nM

Q: Which IC50 [1] does the source give for `COc1cc(N2CCN(C)CC2)ccc1Nc1ncc2c(n1)N(C)c1ccccc1C(=O)N2C` here?
A: > 8000 nM

Q: And the IC50 [2]?
A: > 8000 nM

Q: What about the IC50 [3] of the same compound?
A: 6350 nM

Q: And the IC50 [4]?
A: > 8000 nM

Q: What about the IC50 [5] of the same compound?
A: > 8000 nM

Q: And the IC50 [6]?
A: > 8000 nM

Q: What about the IC50 [7] of the same compound?
A: > 8000 nM

Q: And the IC50 [8]?
A: > 8000 nM

Q: And the IC50 [9]?
A: 3880 nM

Q: `CCN(CC)CCCCNc1ncc2cc(-c3cc(OC)cc(OC)c3)c(NC(=O)NC(C)(C)C)nc2n1` [PD-173074] was tested. Which IC50 [10] did it give?
A: > 2000 nM

Q: What about the IC50 [11] of the same compound?
A: > 2000 nM

Q: What about the IC50 [12] of the same compound?
A: > 2000 nM

Q: And the IC50 [13]?
A: > 2000 nM

Q: What about the IC50 [14] of the same compound?
A: > 2000 nM

Q: What about the IC50 [15] of the same compound?
A: > 2000 nM

Q: What about the IC50 [16] of the same compound?
A: > 2000 nM

Q: What about the IC50 [17] of the same compound?
A: > 2000 nM

Q: And the IC50 [5]?
A: > 2000 nM

Q: And the IC50 [18]?
A: > 2000 nM

Q: And the IC50 [19]?
A: > 2000 nM

Q: And the IC50 [20]?
A: > 2000 nM

Q: And the IC50 [21]?
A: > 2000 nM

Q: What about the IC50 [22] of the same compound?
A: > 2000 nM

Q: And the IC50 [23]?
A: > 2000 nM

Q: What about the IC50 [24] of the same compound?
A: > 2000 nM

Q: What about the IC50 [25] of the same compound?
A: > 2000 nM

Q: And the IC50 [26]?
A: > 2000 nM

Q: And the IC50 [27]?
A: > 2000 nM

Q: What about the IC50 [28] of the same compound?
A: > 2000 nM

Q: What about the IC50 [29] of the same compound?
A: > 2000 nM

Q: And the IC50 [30]?
A: > 2000 nM

Q: What about the IC50 [31] of the same compound?
A: > 2000 nM

Q: And the IC50 [32]?
A: > 2000 nM

Q: And the IC50 [33]?
A: > 2000 nM

Q: And the IC50 [34]?
A: > 2000 nM

Q: And the IC50 [35]?
A: > 2000 nM

Q: And the IC50 [36]?
A: > 2000 nM

Q: What about the IC50 [37] of the same compound?
A: > 2000 nM

Q: What about the IC50 [38] of the same compound?
A: > 2000 nM

Q: With `CC[C@H](CO)Nc1nc(NCc2ccccc2)c2ncn(C(C)C)c2n1` [SELICICLIB] as the compound, how does the IC50 [1] read?
A: > 16000 nM

Q: And the IC50 [2]?
A: > 16000 nM

Q: What about the IC50 [3] of the same compound?
A: > 16000 nM

Q: And the IC50 [4]?
A: > 16000 nM

Q: What about the IC50 [5] of the same compound?
A: > 16000 nM

Q: And the IC50 [6]?
A: > 16000 nM

Q: What about the IC50 [7] of the same compound?
A: 13800 nM

Q: And the IC50 [8]?
A: > 16000 nM

Q: What about the IC50 [9] of the same compound?
A: > 16000 nM

Q: How did the IC50 [1] turn out when `CC(=O)O[C@H]1C(=O)[C@@]2(C)[C@H]([C@H](OC(=O)c3ccccc3)[C@]3(O)C[C@H](OC(=O)[C@H](O)[C@@H](NC(=O)c4ccccc4)c4ccccc4)C(C)=C1C3(C)C)[C@]1(OC(C)=O)CO[C@@H]1C[C@@H]2O` [PACLITAXEL] was run?
A: > 102 nM

Q: What about the IC50 [2] of the same compound?
A: > 102 nM

Q: What about the IC50 [3] of the same compound?
A: 4.5 nM

Q: What about the IC50 [4] of the same compound?
A: > 102 nM

Q: And the IC50 [5]?
A: > 102 nM

Q: What about the IC50 [6] of the same compound?
A: > 102 nM

Q: What about the IC50 [7] of the same compound?
A: > 102 nM

Q: What about the IC50 [8] of the same compound?
A: > 102 nM

Q: And the IC50 [9]?
A: 27.3 nM

Q: How did the IC50 [1] turn out when `N[C@@H](CSC(c1ccccc1)(c1ccccc1)c1ccccc1)C(=O)O` [S-TRITYL-L-CYSTEINE] was run?
A: > 5120 nM

Q: What about the IC50 [2] of the same compound?
A: > 5120 nM

Q: What about the IC50 [3] of the same compound?
A: 1270 nM

Q: And the IC50 [4]?
A: > 5120 nM

Q: What about the IC50 [5] of the same compound?
A: > 5120 nM

Q: What about the IC50 [6] of the same compound?
A: > 5120 nM

Q: What about the IC50 [7] of the same compound?
A: 3600 nM

Q: What about the IC50 [8] of the same compound?
A: > 5120 nM

Q: And the IC50 [9]?
A: 1560 nM

Q: How did the IC50 [1] turn out when `CCN(CC)CCNC(=O)c1c(C)[nH]c(/C=C2\C(=O)Nc3ccc(F)cc32)c1C` [SUNITINIB] was run?
A: > 8000 nM

Q: What about the IC50 [2] of the same compound?
A: > 8000 nM

Q: What about the IC50 [3] of the same compound?
A: 7550 nM

Q: And the IC50 [4]?
A: > 8000 nM

Q: And the IC50 [5]?
A: > 8000 nM

Q: And the IC50 [6]?
A: > 8000 nM

Q: And the IC50 [7]?
A: > 8000 nM

Q: And the IC50 [8]?
A: > 8000 nM

Q: And the IC50 [9]?
A: 1960 nM
